# Test results published in patent US20080085264A1, “METHODS FOR ENHANCING STEM CELL ENGRAFTMENT DURING TRANSPLANTATION” (priority 2003, published 2008).
# Columns and labels:
# CD26/DPPIV = target: T1, CD26/DPPIV (Mus musculus, UniProt P28843); test: CD26/DPPIV peptidase activity of C57BL/6 BM cells (Gly-Pro-pNA); format: cell-based
# T1 construct: endogenous in cells; host or cells: sorted mouse (C57BL/6) bone marrow cells
# Experimental: Proteolytic activity was determined by measurement of the amount of p-nitroanilide (pNA) formed in the supernatant at 405 nm. One thousand cells per well in the 96-well flat-bottomed plate were incubated at 37° C. with 4 mM Gly-Pro-pNA in 100 μL PBS buffer (pH 7.4) containing 10 mg/ml BSA. Absorbance was measured at 405 nm on a microplate spectrofluorometer (SpectraMax 190, Molecular Devices, Sunnyvale, Calif.) every two minutes and pmoles of pNA formed were calculated by comparison to a pNA standard curve. The results were plotted as pmoles pNA versus minutes and the slope was calculated at the linear portion of the curve giving a measure of DPPIV activity expressed as pmoles/min (U) per 1000 cells. Tests were run using three separate samples (n=3 for each sample); cell-free blanks, substrate-free blanks were run in parallel.
# [1] = system: Sca-1+lin- mouse BM cells; test: Chemotaxis assay, CXCL12 induced migration of Sca-1+lin- mouse BM cells; format: cell-based
# Experimental: Chemotaxis assays were performed using 96-well chemotaxis chambers (NeuroProbe, Gaithersburg, Md.) in accordance with manufacturer's instructions as described previously with minor variations (Christopherson K W, 2nd, et al. J Immunol. 2002; 169:7000-7008; Christopherson K W, 2nd, et al. Blood. 2001; 98:3562-3568; Christopherson K, 2nd, et al. Immunol Lett. 1999; 69:269-273). Briefly 300 μl of RPMI supplemented with 10% FBS and either 0, 100, 200, and 400 ng/ml of mouse CXCL12 chemokine was added to the lower chamber. Ten-thousand sorted cells in 50 μL of media were added to the upper side of the membrane (5.7 mm diameter, 5 μm pore size, polycarbonate membrane.)
# Total cell number in the lower well was obtained by counting using hemocytometer after 4 hours of incubation at 37° C., 5% CO2. Percent migration was calculated by dividing the number of the cells in the lower well by the total cell input multiplied by 100 and subtracting random migration (always less than 5%) to the lower chamber without chemokine presence. Three samples were analyzed separately in triplicate, and then the data averaged for statistical analysis.
# Inhibition of endogenous CD26/DPPIV activity was accomplished by pretreatment of cells with 5 mM Diprotin A (Peptides International, Louisville, Ky.) for 15 minutes at 37° C. Diprotin A was allowed to remain in the chemotaxis chamber during the assay. […]
# DBA/2 mice [2] = test: G-CSF induced mobilization of HSC/HPC in DBA/2 mice (progenitor cell assays of peripheral blood); format: in vivo, mouse; conditions: inhibitor treatment during G-CSF mobilization
# Experimental: (§1) Mobilization was achieved by treating mice with 2.5 μg (micrograms) G-CSF/mouse 2×/day s.c. for 2 days (Broxmeyer H E, et al. J Exp Med. 1999; 189:1987-1992). Mice simultaneously treated with a specific CD26 inhibitor also underwent treatment with either 5 μmol Diprotin A/mouse 2×/day s.c. for 2 days or 5 μmol Val-Pyr/mouse 2×/day s.c. for 2 days. Diprotin A was obtained commercially (Peptides International, Louisville, Ky.) and Val-Pyr was obtained as a gift from Nicolai Wagtmann (Novo Nordisk, Denmark). After either G-CSF or G-CSF plus CD26 inhibitor treatment peripheral blood cells were collected and total cellular nuclearity was measured and progenitor cell assays were performed using total peripheral blood cells.
# (§2) One-hundred thousand mouse G-CSF mobilized peripheral blood cells were plated in triplicate for colony formation by CFU-GM, BFU-E, and CFU-GEMM and scored at 7 days incubation as previously described (Cooper S, Broxmeyer H E. Measurement of interleukin-3 and other hematopoietic growth factors, such as GM-CSF, G-CSF, M-CSF, erkythropoietin and the potent co-stimulating cytokines steel factor and FLt-3 ligand. In: Coligan J E K A, Margulies D H, Shevach E M, Strober E, Coico R, ed. Current protocols in immunology. New York: John Wiley & Sons; 1996:6.4.1-6.4.12). Cells were plated for colony formation in 1% methylcellulose culture medium containing 30% FBS, 1 U/ml recombinant(r) human Epo, 0.1 mM Hemin, 5% Pokeweed Mitogen Spleen Conditioned Media (PWMSCM), and 50 ng/ml rmouse Steel Factor (=Stem Cell Factor, SCF).
# DBA/2 mice [3] = test: as above; format: in vivo, mouse; conditions: without G-CSF
# BoyJ recipient mice = test: Non-competitive long-term engraftment; format: in vivo, mouse; conditions: six months post transplant, P<0.05, n=5
# Experimental: Control C57BL/6 (CD45.2^+) or CD26 inhibitor treated C57BL/6 (CD45.2^+) LD donor BM cells were transplanted by tail-vein injection into lethally irradiated (1100 cGy split dose) congenic BoyJ (CD45.1^+) female recipient mice (Haneline L S, et al. Blood. 1999; 94:1-8). Contribution of donor cells was obtained by measuring the number of donor and residual recipient lymphocytes in the peripheral blood. The % donor contribution was calculated by flow cytometric analysis of peripheral blood lymphocytes found in the recipient mouse peripheral blood by measuring CD45.1^+ and CD45.2^+ on cells isolated from the recipient mice 1-6 months post transplant. No less than five mice from each recipient group were analyzed, each one having received a transplant of 5×10^5 pooled LD donor BM cells. Comparisons between treatment groups were made using a two-tailed Student's t-test and data was plotted as mean (M)±standard error of the mean (SEM).
# C57BL/6 mice [4] = test: G-CSF induced mobilization of HSC/HPC in C57BL/6 mice (progenitor cell assays of peripheral blood); format: in vivo, mouse; conditions: inhibitor 5 μmol/mouse 2×/day s.c. during G-CSF mobilization, C57BL/6
# Experimental: as §1, §2
# C57BL/6 mice [5] = test: as above; format: in vivo; conditions: 5 μmol/mouse 2×/day s.c. alone, without G-CSF
# T1 sequence (P28843 whole entry): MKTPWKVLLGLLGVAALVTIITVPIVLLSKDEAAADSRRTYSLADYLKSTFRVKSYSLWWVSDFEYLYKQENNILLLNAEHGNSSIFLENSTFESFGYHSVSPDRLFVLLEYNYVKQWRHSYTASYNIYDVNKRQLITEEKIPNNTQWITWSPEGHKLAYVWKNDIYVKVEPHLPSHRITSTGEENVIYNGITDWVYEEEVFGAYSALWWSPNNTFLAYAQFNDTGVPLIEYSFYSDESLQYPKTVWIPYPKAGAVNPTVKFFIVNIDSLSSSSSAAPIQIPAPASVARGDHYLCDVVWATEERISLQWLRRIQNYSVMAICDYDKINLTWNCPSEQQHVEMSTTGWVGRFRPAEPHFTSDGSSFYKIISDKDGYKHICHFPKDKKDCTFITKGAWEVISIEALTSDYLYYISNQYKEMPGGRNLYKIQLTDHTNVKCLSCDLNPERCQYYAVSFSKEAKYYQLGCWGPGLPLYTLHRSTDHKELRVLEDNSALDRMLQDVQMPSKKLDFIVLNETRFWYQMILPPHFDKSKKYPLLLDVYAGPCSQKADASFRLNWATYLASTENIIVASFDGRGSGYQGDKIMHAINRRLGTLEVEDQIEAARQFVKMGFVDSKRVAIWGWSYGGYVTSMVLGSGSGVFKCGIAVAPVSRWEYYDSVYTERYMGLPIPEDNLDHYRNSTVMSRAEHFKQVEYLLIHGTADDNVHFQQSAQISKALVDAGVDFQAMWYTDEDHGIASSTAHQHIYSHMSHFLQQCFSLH
substance,measurement,setting,value
Ile-Pro-Ile [Diprotin A],CD26 peptidase activity with inhibitor treatment,"CD26/DPPIV; C57BL/6 BM cells, P<0.01",rapidly lost
same,"recovery of CD26 activity begins, time post treatment",CD26/DPPIV; cells washed 15 minutes post inhibitor treatment,within four hours
same,increase in CXCL12-induced migratory response,[1]; Diprotin A treated Sca-1+lin- BM cells from C57BL/6 mice,two-fold
same,effect on CXCL12-induced migration of CD26-/- cells,[1]; Diprotin A treatment of CD26-/- Sca-1+lin- cells compared to untreated CD26-/- cells,no further enhancing effect
same,reduction in BFU-E compared to G-CSF alone,DBA/2 mice [2],56%
same,reduction in CFU-GEMM compared to G-CSF alone,DBA/2 mice [2],71%
same,reduction in CFU-GM compared to G-CSF alone,DBA/2 mice [2],62%
same,"effect on the mobilization of progenitors, inhibitor alone",DBA/2 mice [3],little or no effect
same,donor cell contribution to the formation of peripheral blood leukocytes,BoyJ recipient mice,Increased donor cell contribution
same,reduction in BFU-E compared to G-CSF alone,C57BL/6 mice [4],29%
same,reduction in CFU-GEMM compared to G-CSF alone,C57BL/6 mice [4],63%
same,reduction in CFU-GM compared to G-CSF alone,C57BL/6 mice [4],59%
same,"effect on the mobilization of progenitors, inhibitor alone",C57BL/6 mice [5],little or no effect
